Measurements from patent US8377874.
Like-named read-outs stand apart in the source and are kept apart here.

Details: rcm bond, Zhan catalyst 1B

## CCOC(=O)[C@@]12C[C@H]1/C=C\CCCCC[C@@H]1NC(=O)OCC(C)(C)CC=Cc3cc4c(nccc4cc3OC)O[C@@H]3C[C@@H](C(=O)N2)N(C3)C1=O
From C=CCC(C)(C)COC(=O)N[C@H]1CCCCC/C=C\[C@@H]2C[C@@]2(C(=O)OCC)NC(=O)[C@@H]2C[C@@H](Oc3nccc4cc(OC)c(C=C)cc34)CN2C1=O, DCM, 10.2 mM, 40.0 °C, 5.0 h
  ring closure, yield of all isomers: 80.8%

## COc1cc2nc(-c3ccccc3)cc3c2cc1C=CCCCOC(=O)N[C@H]1CCCCCC=C[C@@H]2C[C@@]2(C(=O)NS(=O)(=O)C2CC2)NC(=O)[C@@H]2C[C@H](CN2C1=O)O3
From C=CCCCCC[C@H](NC(=O)OCCCC=C)C(=O)N1C[C@H](Oc2cc(-c3ccccc3)nc3cc(OC)c(C=C)cc23)C[C@H]1C(=O)N[C@]1(C(=O)NS(=O)(=O)C2CC2)C[C@H]1C=C, 1,2-dichloroethane, 4.73 mM, 90.0 °C, 3.0 h
  ring closure, yield of all isomers: 6.1%

## CCOC(=O)[C@@]12C[C@H]1C=CCCCCC[C@@H]1NC(=O)OCC(C)(C)CC=Cc3cc4c(cc(-c5ccccc5)nc4cc3OC)O[C@@H]3C[C@@H](C(=O)N2)N(C3)C1=O
From C=CCCCCC[C@H](NC(=O)OCC(C)(C)CC=C)C(=O)N1C[C@H](Oc2cc(-c3ccccc3)nc3cc(OC)c(C=C)cc23)C[C@H]1C(=O)N[C@]1(C(=O)OCC)C[C@H]1C=C, DCM, 5.0 mM, 40.0 °C, 7.0 h
  ring closure, yield of all isomers: 49%

## CCOC(=O)[C@@]12C[C@H]1/C=C\CCCCC[C@H](NC(=O)OC(C)(C)C)C(=O)N1C[C@H](Oc3nccc4cc(OC)c(Br)cc34)C[C@H]1C(=O)N2
From C=CCCCCC[C@H](NC(=O)OC(C)(C)C)C(=O)N1C[C@H](Oc2nccc3cc(OC)c(Br)cc23)C[C@H]1C(=O)N[C@]1(C(=O)OCC)C[C@H]1C=C, DCM, 10.15 mM, 40.0 °C, 2.0 h
  ring closure, yield of all isomers: 70.1%
